Test results taken from patent US11504385B2, “Proteolysis targeting chimeric molecule, preparation method, and application” (CHINA PHARMACEUTICAL UNIVERSITY, priority 2019, dated 2022).

Assays:
BCR-ABL fusion protein = biological target: T1, BCR-ABL fusion protein (Homo sapiens, UniProt P00519+P11274+Q96SW2, E27K); test: Simulated light control, BCR-ABL level in K562 cells (immunoblotting); assay type: cell-based; conditions: 100 nM for 24 hours, then fresh medium
T1 construct: By using BCR-ABL and CRBN positive K562 cell lines; endogenous in cells; host or cells: K562
Experimental: (§1) In order to simulate a light control process, the researchers treated K562 cells with the compound 4C-trans for 24 hours. Then the cells were transferred to fresh media and divided into 2 groups: one group was placed in a dark room (VIS group), and the other group was irradiated with UV after 0, 4, 8, 12, 16, and 24 hours of incubation to simulate the photo-isomerization process (UV group).
(§2) The specific operation method for simulating light control is as follows:
(§3) The compound 4C-trans at a final concentration of 100 nM was added to K562 cells, and the cells were incubated at 37° C. for 24 hours. The medium was washed off, and the cells were washed 2 times with 1*PBS. Then the cells were transferred to fresh 1640 medium (10% FBS, 1*glutamine) for culture, and divided into two groups: one group was placed in a dark room, and the other group was irradiated with UV-C light for 30 min every 4 hours. The cells were collected after transfer and incubation for 0, 4, 8, 16, and 24 hours respectively, and post-treatment of the cells was the same as that of immunoblotting.

K562 cell line = test: Cell viability test (CellTiter-Glo), K562; assay type: cell-based
Experimental: The operation method of the K562 cell viability test is as follows:
50 μL of K562, MCF-7, HCT116 and A549 cell suspensions were added to a 96-well plate and incubated for 12 hours. 10 μL of compound was added to the well and incubated for 48 hours. Operation was performed according to a CellTiter-Glo® luminescent cell viability assay kit (Promega). Nonlinear regression analysis data in GraphPad Prism 6 was used.

ABL = biological target: T2, ABL (Homo sapiens, UniProt P00519); test: Simulated light control, ABL level in K562 cells (immunoblotting); assay type: cell-based; conditions: 100 nM for 24 hours, then fresh medium
T2 construct: degradation effect of the compound 4C on c-ABL and BCR-ABL proteins in K562 cells; endogenous in cells; host or cells: K562
Experimental: as §1, §2, §3

[1] = Photo-isomerization by UV-Vis absorption spectrum; assay type: physicochemical
Experimental: Then, we explored the photodynamic characteristics of the compound 4C through UV-Vis absorption spectrum. […] In addition, since the compound 4C is a T-type optical switch, the cis configuration underwent self-heating relaxation under dark conditions to transform into the trans configuration, and T½ was about 10 hours at 25° C.

K562 cells = test: Anti-K562 cell proliferation activity test (CCK-8); assay type: cell-based; conditions: Homo sapiens, 48 hours, read-out: median inhibitory concentration (IC50)
Experimental: The operation method of the anti-K562 cell proliferation activity test is as follows:
100 μL of K562 cell suspension and 10 μL of test compounds of different concentrations were prepared in a 96-well plate. The culture plate was placed in an incubator for incubation for 48 hours (37° C., 5% CO2). 10 μL of CCK-8 solution was added to each well. The culture plate was placed in an incubator for incubation for 1-4 hours. The absorbency was measured at 450 nm with a microplate reader. […] (%)=[A (with drug)−A (blank)]/[A (with 0 drug)−A (blank)]×100, wherein:
A (with drug): the absorbency of the wells containing cells, CCK-8 solution and drug solution
A (blank): the absorbency of wells containing medium and CCK-8 solution but no cells
A (with 0 drug): the absorbency of the wells containing cells and CCK-8 solution but no drug solution

ABL gene = test: RT-qPCR, expression of the ABL gene in K562 cells; assay type: cell-based
Excerpt: In order to test the degradation effect of the compound 4C on c-ABL and BCR-ABL proteins in K562 cells, the researchers performed an immunoblotting experiment. […] In order to exclude the possibility that the compound 4C affected the ABL gene to generate false positive expression, the researchers used RT-qPCR in K562 cells to study the expression of the ABL gene.
The operation method of an RT-qPCR experiment is as follows:
According to the related gene information in the NCBI database, the coding sequences were selected, and primers were designed and synthesized by GenScript Biotechnology Corporation under entrustment. The sequences are as follows:
A K562 cell resuspension solution collected in a 1.5 mL centrifuge tube was centrifuged briefly. […] After mixing uniformly, the purity and concentration of the extracted RNA sample were detected using a spectrophotometer. […]
0.2 ml thin-walled PCR tubes were taken and numbered respectively. […] Water was added to each tube to 25 μl and mixed uniformly, and the mixed solutions were placed in an SLAN fluorescent quantitative PCR instrument. After pre-denaturation at 95° C. for 5 min, the mixed solutions were placed at 95° C. for 15 s→65° C. for 35 s (fluorescence detection), for 40 cycles.

[2] = UV-C 30 min every 4 hours (UV group)
[3] = dark room (VIS group), 0-24 hours

T2 sequence (P00519 whole entry): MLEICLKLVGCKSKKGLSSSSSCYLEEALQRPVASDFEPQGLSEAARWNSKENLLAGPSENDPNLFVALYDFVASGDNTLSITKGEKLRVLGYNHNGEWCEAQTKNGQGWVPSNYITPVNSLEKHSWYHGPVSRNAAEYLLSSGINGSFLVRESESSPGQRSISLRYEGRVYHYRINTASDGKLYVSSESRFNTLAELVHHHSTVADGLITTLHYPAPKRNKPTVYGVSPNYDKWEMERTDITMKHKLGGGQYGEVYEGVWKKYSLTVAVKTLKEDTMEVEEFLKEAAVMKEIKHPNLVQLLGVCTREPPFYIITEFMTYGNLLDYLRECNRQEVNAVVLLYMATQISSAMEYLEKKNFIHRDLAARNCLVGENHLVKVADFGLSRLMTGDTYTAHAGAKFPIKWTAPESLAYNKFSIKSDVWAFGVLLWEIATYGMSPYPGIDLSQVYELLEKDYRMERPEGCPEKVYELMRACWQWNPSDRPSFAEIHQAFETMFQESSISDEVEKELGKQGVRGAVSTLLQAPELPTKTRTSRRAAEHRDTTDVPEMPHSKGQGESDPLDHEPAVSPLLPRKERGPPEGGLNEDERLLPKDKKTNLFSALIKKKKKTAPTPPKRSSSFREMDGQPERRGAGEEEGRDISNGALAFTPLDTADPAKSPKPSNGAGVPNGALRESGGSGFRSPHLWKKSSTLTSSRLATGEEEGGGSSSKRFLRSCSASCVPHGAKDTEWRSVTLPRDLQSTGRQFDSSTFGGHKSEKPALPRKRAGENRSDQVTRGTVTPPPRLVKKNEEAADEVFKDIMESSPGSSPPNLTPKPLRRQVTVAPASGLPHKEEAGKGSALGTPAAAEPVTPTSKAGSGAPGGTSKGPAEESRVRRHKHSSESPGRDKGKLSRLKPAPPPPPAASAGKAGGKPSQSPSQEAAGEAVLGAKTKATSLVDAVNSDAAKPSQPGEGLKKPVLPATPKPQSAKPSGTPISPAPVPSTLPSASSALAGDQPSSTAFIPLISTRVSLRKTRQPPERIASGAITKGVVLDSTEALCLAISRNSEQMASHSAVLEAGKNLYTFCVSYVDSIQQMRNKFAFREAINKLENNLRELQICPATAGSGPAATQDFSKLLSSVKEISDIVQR

BCR-ABL level after washout (BCR-ABL fusion protein; [2]): increased over time
BCR-ABL fusion protein level after washout (BCR-ABL fusion protein; [3]): remained at a low level
EC50 (K562 cell line; Homo sapiens, K562 cells, 48 hours, CellTiter-Glo, read-out: median effective concentration (EC50)): 28 nM
ABL level after washout (ABL; [2]): increased over time
ABL level after washout (ABL; [3]): almost disappeared
reversibility of the photosensitive switch (stability) ([1]; irradiated with ultraviolet light and white light in turn for 5 times): still relatively stable
IC50 (K562 cells): 68 nM
Compound: Cc1nc(Nc2ncc(C(=O)Nc3c(C)cccc3Cl)s2)cc(N2CCN(CCCCOc3ccc(/N=N/c4ccc(C(=O)Nc5cccc6c5CN(C5CCC(=O)NC5=O)C6=O)cc4)cc3)CC2)n1 (centres unmarked) [Compound 4C, (E)-N-(2-chloro-6-methylphenyl)-2-((6-(4-(4-(4-((4-((2-(2,6-dioxopiperidin-3-yl)-1-oxoisoindolin-4-yl)carbamoyl)phenyl)diazenyl)phenoxy)butyl)piperazin-1-yl)-2-methylpyrimidin-4-yl)amino)thiazole-5-carboxamide]
selectivity for the BCR-ABL dependent K562 cell line (K562 cell line; versus A549, HCT116, HEK293T, MCF-7): good selectivity
transformation from trans to cis configuration (absorbency-time curve at 361 nm) ([1]; UV irradiation for 1 hour): almost completely transformed to the cis configuration
mRNA level of the ABL gene, time-effect (ABL gene; 500 nm, 48 hours): did not significantly decrease
mRNA level of the ABL gene, dose-effect (ABL gene; different concentrations, 36 hours, compared with control group): did not change significantly
